Data set [1] relates to COLO 205. The data set is described as follows: Antiproliferative activity against human COLO205 cells harboring BRAF mutant/wild type KRAS/wild type PIK3CA after 72 hrs by CCK8 assay. Particulars: COLO 205, 72 h. On the technique in general: Tetrazolium assays rely on reduction of a dye to a coloured formazan, in cell work by metabolically active cells.
Data set [2] in a line: Half life in Sprague-Dawley rat at 10 mg/kg, po via gavage. Format: ADME, organism-based. Particulars: in vivo.
The nature of data set [3]: Cmax in Sprague-Dawley rat at 10 mg/kg, po via gavage. Format: ADME, organism-based. Details: dose 10 mg/kg, route oral. Particulars: in vivo.
Data set [4] can be described thus: AUC (0 to t) in Sprague-Dawley rat at 10 mg/kg, po via gavage. The format is ADME, organism-based. Conditions: in vivo.
For data set [5], the target named is Dual specificity mitogen-activated protein kinase kinase 1 (Homo sapiens, UniProt Q02750).
Chain of Dual specificity mitogen-activated protein kinase kinase 1 (Q02750 whole entry): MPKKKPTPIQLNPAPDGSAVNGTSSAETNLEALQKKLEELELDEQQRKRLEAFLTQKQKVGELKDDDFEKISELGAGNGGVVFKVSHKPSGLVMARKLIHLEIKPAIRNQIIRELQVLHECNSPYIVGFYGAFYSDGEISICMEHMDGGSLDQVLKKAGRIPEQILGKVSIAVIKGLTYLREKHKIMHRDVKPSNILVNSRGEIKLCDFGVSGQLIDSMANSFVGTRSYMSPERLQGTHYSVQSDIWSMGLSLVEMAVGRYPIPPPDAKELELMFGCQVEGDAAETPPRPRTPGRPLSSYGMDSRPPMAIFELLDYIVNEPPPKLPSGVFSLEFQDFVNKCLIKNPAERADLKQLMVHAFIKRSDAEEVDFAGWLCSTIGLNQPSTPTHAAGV
Description: Inhibition of MEK1 (unknown origin) using Ser/Thr 03 peptide substrate after 4 hrs by fluorescence assay
Data set [6] can be described thus: Oral bioavailability in Sprague-Dawley rat at 10 mg/kg via gavage. The format is ADME, organism-based. Conditions: in vivo.
Data set [7] in a line: Clearance in Sprague-Dawley rat at 2 mg/kg, iv. The format is ADME, organism-based. Particulars: in vivo.
Data set [8] is described as follows: Volume of distribution at steady state in Sprague-Dawley rat at 2 mg/kg, iv. The format is ADME, organism-based. Particulars: in vivo, read-out: Vdss.
In the next data set the test system is Mus musculus. Briefly: Toxicity in athymic nude mouse xenografted with human COLO205 cells assessed as body weight loss at 10 mg/kg, po qd for 14 days measured twice per week during compound dosing. Format: organism-based. Particulars: in vivo, 336 h.
In data set [9] the test system is COLO 205. The data set is described as follows: Antitumor activity against human COLO205 cells xenografted in athymic nude mouse assessed as tumor growth inhibition at 10 mg/kg, po qd for 14 days measured twice per week during compound dosing relative to control. Conditions: COLO 205, po, 336 h, read-out: TGI. A general note: In xenograft studies the graft and the host belong to different species.

A further data set deals with MDA-MB-231. Briefly: Antiproliferative activity against human MDA-MB-231 cells harboring KRAS mutant/wild type BRAF/PIK3CA after 72 hrs by CCK8 assay. Format: functional, cell-based.
The subject of the next data set is A549. The data set is described as follows: Antiproliferative activity against human A549 cells harboring KRAS mutant/wild type BRAF/PIK3CA after 72 hrs by CCK8 assay. Format: functional, cell-based.
Another data set deals with Calu-6. The data set is described as follows: Antiproliferative activity against human Calu6 cells harboring KRAS mutant/wild type BRAF/PIK3CA after 72 hrs by CCK8 assay. Format: functional, cell-based.
Another data set relates to HT-29. The data set is described as follows: Antiproliferative activity against human HT-29 cells harboring BRAF mutant/PIK3CA mutant/wild type KRAS after 72 hrs by CCK8 assay. The format is functional, cell-based.
A further data set relates to DLD-1. Briefly: Antiproliferative activity against human DLD1 cells harboring KRAS mutant/wild type BRAF/PIK3CA D549N mutant after 72 hrs by CCK8 assay. Format: functional, cell-based.
Another data set relates to SW480. The data set is described as follows: Antiproliferative activity against human SW480 cells harboring KRAS mutant/wild type BRAF/PIK3CA after 72 hrs by CCK8 assay. Format: functional, cell-based.
The subject of another data set is U-937. Briefly: Antiproliferative activity against human U937 cells harboring wild type BRAF/KRAS/PIK3CA after 72 hrs by CCK8 assay. Format: functional, cell-based.
The next data set relates to NCI-H1299. Briefly: Antiproliferative activity against human NCI-H1299 cells harboring wild type BRAF/KRAS/PIK3CA after 72 hrs by CCK8 assay. The format is functional, cell-based.
The next data set deals with HeLa. The data set is described as follows: Antiproliferative activity against human HeLa cells harboring wild type BRAF/KRAS/PIK3CA after 72 hrs by CCK8 assay. Format: functional, cell-based.

Experimental findings from ChEMBL document CHEMBL4219060, “Discovery of EBI-1051: A novel and orally efficacious MEK inhibitor with benzofuran scaffold” (Bioorg Med Chem, 2018) are described below.

Usually IC50 stands for the concentration at which inhibition is half-maximal. High values mean weaker potency in that assay, low ones greater potency in that assay. By half-life is commonly meant the time needed for the level to fall by half in the phase considered. Usually Cmax stands for the maximum level reached in the sampled fluid or tissue. Broadly, the AUC(0-t) is exposure summed from dosing to a finite time, without extrapolation to infinity. A word on the bioavailability: it is dose-corrected exposure relative to a reference, in per cent. Higher therefore signals much systemic uptake. What is called clearance is the volume of plasma or blood freed of the substance per unit of time. The low end stands for inefficient removal, the high end for efficient removal.

SMILES strings stand for the structures. Calls of active or inactive are those of the source.

`CC(C)(CO)ONC(=O)c1cc2ccoc2c(F)c1Nc1ccc(I)cc1F` yielded an IC50 in the data set on COLO 205 [1] of 0.012 µM.
The molecule `O=C(NOCCO)c1cc2c(cc1Nc1ccc(I)cc1F)OCC2` showed a half-maximal inhibitory concentration (IC50) in the data set on COLO 205 [1] of more than 1 µM.
The molecule `O=C(NOCCCO)c1cc2ccoc2c(F)c1Nc1ccc(I)cc1F` returned an IC50 in the data set with COLO 205 [1] of 0.0765 µM.
In the data set on COLO 205 [1], `O=C(NOCCO)c1cc2ccoc2c(F)c1Nc1ccc(I)cc1F` showed a half-inhibitory concentration (IC50) of 0.0029 µM. Also, the half-life in data set [2] is 1.7 h. Further, the Cmax in data set [3] was 2.08 µg/mL. Moreover, the area under the curve AUC(0-t) in data set [4] was determined as 8.37 µg·h/mL.
For `O=C(NOC[C@H](O)CO)c1cc2ccoc2c(F)c1Nc1ccc(I)cc1F`, 0.0025 µM corresponded to half-maximal inhibition with COLO 205 [1] (IC50). In [2], the half-life was 3.4 h. This molecule yielded a Cmax in data set [3] of 0.695 µg/mL. Moreover, the area under the curve AUC(0-t) in data set [4] worked out at 2.86 µg·h/mL.
`O=C(c1cc2c(c(F)c1Nc1ccc(I)cc1F)OCC2)N1C[C@@H](O)CO1`: the IC50 (in [5]; with COLO 205 [1]) was more than 1 µM each time.
`O=C(NOCCO)c1cc2c(c(F)c1Nc1ccc(I)cc1F)OCC2` gave a half-maximal inhibitory concentration (IC50) in the data set with COLO 205 [1] of 0.01 µM.
`O=C(NOCCO)c1cc2c(c(F)c1Nc1ccc(Br)cc1Cl)OCC2` gave an IC50 with COLO 205 [1] of more than 1 µM.
Turning to `O=C(NOCCO)c1cc2c(c(Cl)c1Nc1ccc(I)cc1F)OCC2`, half-maximal inhibition in the data set with COLO 205 [1] (IC50) required 0.0384 µM.
In turn, `O=C(NOC[C@H](O)CO)c1cc2c(c(F)c1Nc1ccc(I)cc1F)OCC2` yielded a bioavailability in data set [6] of 62%. Further, in the data set on COLO 205 [1], the IC50 was 0.0072 µM. The molecule also gave a half-life in data set [2] of 2 h. This molecule showed a Cmax in [3] of 0.342 µg/mL. The molecule further yielded an AUC(0-t) in data set [4] of 1.47 µg·h/mL. Further, the clearance in data set [7] was found to be 4.42 L/h/kg. Further, the Vd in data set [8] was found to be 9.4 L/kg.
The molecule `O=C(NC[C@@H](O)CO)c1cc2c(c(F)c1Nc1ccc(I)cc1F)OCC2` yielded a 50% inhibitory concentration (IC50) in [5] of more than 1 µM.
On to `O=C(NOC[C@@H](O)CO)c1cc2c(c(F)c1Nc1ccc(I)cc1F)OCC2`, for which it took 0.0901 µM to reach half-maximal inhibition with COLO 205 [1] (IC50).
With `Cn1cnc2c(F)c(Nc3ccc(Br)cc3Cl)c(C(=O)NOCCO)cc21` [SELUMETINIB], the Activity entry in the data set on Mus musculus is listed as “Non-Toxic”. Besides, the inhibition in vivo at 10 mg/kg in the data set with COLO 205 [9] stood at 60%. Also, the result in the data set on MDA-MB-231 and in the data set on A549 was inactive. Besides, the concentration for half-maximal inhibition (IC50) in the data set with COLO 205 [1] stood at 0.059 µM.
In turn, `O=C(NC[C@H](O)CO)c1cc2c(c(F)c1Nc1ccc(I)cc1F)OCC2` showed a half-inhibitory concentration (IC50) in [5] of more than 1 µM.
With `O=C(NOC(CO)CO)c1cc2ccoc2c(F)c1Nc1ccc(I)cc1F`, the outcome in the data set with Calu-6, in the data set on HT-29, in the data set with MDA-MB-231, in the data set with DLD-1, in the data set with SW480 and in the data set on A549 was Active. Further, the bioavailability in [6] came to 80%. Also, the Activity result with Mus musculus is listed as “Non-Toxic”. Further, the inhibition in vivo at 10 mg/kg in the data set on COLO 205 [9] was 78%. Further, the IC50 with COLO 205 [1] was 0.0047 µM. The molecule also gave a half-life in data set [2] of 2.5 h. Further, the highest level in data set [3] (Cmax) was 13.6 µg/mL. Further, in data set [4], the area under the curve AUC(0-t) was determined as 43.3 µg·h/mL. Moreover, the clearance in data set [7] amounted to 0.204 L/h/kg. In addition, the result with U-937, in the data set with NCI-H1299 and in the data set on HeLa was inactive. In addition, the Vd in [8] turned out to be 0.8 L/kg.
